Laboratory results taken from DBAASP.
In brackets after ≈: the same amount, converted by molar mass. Several values for one entry are separate records, joined by “and”; a condition that tells them apart may be missing. Equal entries are not always repeated.

Columns and labels:
Assay in all cases: ≥ marks a high value that may be exact or a test limit, other limits are often not marked, values filed in µg/mL are converted to µM
[1] = tested on: Acinetobacter baumannii b-01
[2] = tested on: Acinetobacter baumannii b-02
[3] = tested on: Acinetobacter baumannii b-03
[4] = tested on: Acinetobacter baumannii b-04
[5] = tested on: Bacillus pumilus CMCC 63202
Bacillus subtilis DB430 = tested on: Bacillus subtilis DB430
[6] = tested on: Escherichia coli ATCC 8099
[7] = tested on: Klebsiella pneumoniae CMCC 46117
Klebsiella pneumoniae = tested on: Klebsiella pneumoniae
[8] = tested on: Micrococcus luteus CMCC 28001
Micrococcus sp. S1.634 = tested on: Micrococcus sp. S1.634
[9] = tested on: Pseudomonas aeruginosa CMCC 10104
Pseudomonas aeruginosa = tested on: Pseudomonas aeruginosa
[10] = tested on: Salmonella enterica subsp. enterica serovar Paratyphi B CMCC 50094
[11] = tested on: Staphylococcus aureus CMCC 26003
Staphylococcus aureus = tested on: Staphylococcus aureus
[12] = tested on: Staphylococcus epidermidis
Escherichia coli J2210 = tested on: Escherichia coli J2210
Escherichia coli JJ2489 = tested on: Escherichia coli JJ2489
Escherichia coli JW0013 = tested on: Escherichia coli JW0013
[13] = tested on: Escherichia coli JW0368 ΔsbmA
[14] = tested on: Escherichia coli JW2778 ΔygdD
Escherichia coli MC1041 = tested on: Escherichia coli MC1041
Escherichia coli = tested on: Escherichia coli
[15] = tested on: Salmonella enterica serovar Tennessee
[16] = tested on: Salmonella enterica subsp. enterica serovar Enteritidis MH91989
[17] = tested on: Salmonella enterica subsp. enterica serovar Infantis
[18] = tested on: Salmonella enterica subsp. enterica serovar Newport
[19] = tested on: Salmonella typhimurium SL1344
[20] = tested on: Acinetobacter baumannii Josh 230
[21] = tested on: Acinetobacter baumannii Josh 28
[22] = tested on: Enterobacter asburiae St. L P23
[23] = tested on: Enterobacter cloacae BB2012-181
[24] = tested on: Enterobacter cloacae BB2013-32
[25] = tested on: Enterobacter cloacae St. L P23
[26] = tested on: Escherichia coli ARLG-1012
[27] = tested on: Escherichia coli ATCC 25922
[28] = tested on: Escherichia coli BB2013-30
Escherichia coli BW25113 = tested on: Escherichia coli BW25113
Escherichia coli JW55034 = tested on: Escherichia coli JW55034
[29] = tested on: Klebsiella aerogenes St. L P63
[30] = tested on: Klebsiella pneumoniae BB2009-209
[31] = tested on: Klebsiella pneumoniae J3702
[32] = tested on: Klebsiella pneumoniae Oschner KP-1
[33] = tested on: Pseudomonas aeruginosa ATCC 27853
[34] = tested on: Pseudomonas aeruginosa BB2013-100
[35] = tested on: Pseudomonas aeruginosa J4228

CC[C@H](C)[C@H](NC(=O)[C@H](Cc1ccccc1)NC(=O)[C@H](CO)NC(=O)[C@H](CCCCN)NC(=O)[C@H](Cc1c[nH]c2ccccc12)NC(=O)[C@@H](N)CCCCN)C(=O)N[C@@H](CCCCN)C(=O)N[C@@H](CCCCN)C(=O)N[C@@H](CC(C)C)C(=O)N[C@H](C(=O)N[C@@H](CCCCN)C(=O)N[C@@H](CCCCN)C(=O)N[C@@H](Cc1ccccc1)C(=O)N[C@@H](CC(C)C)C(=O)N[C@@H](Cc1cnc[nH]1)C(=O)N[C@@H](CO)C(=O)N[C@@H](C)C(=O)N[C@@H](CCCCN)C(=O)N[C@@H](CCCCN)C(=O)N[C@@H](Cc1ccccc1)C(N)=O)[C@@H](C)O [KWKSFIKKLTKKFLHSAKKF]
MIC [1]: 0.321 µM (≈ 0.8 µg/mL)
MIC [2]: 1.25 µM (≈ 3.12 µg/mL)
MIC [3]: 1.3 µM (≈ 3.25 µg/mL)
MIC [4]: 0.641 µM (≈ 1.6 µg/mL)
MIC [5]: 0.201 µM (≈ 0.5 µg/mL)
MIC (Bacillus subtilis DB430): 0.802 µM (≈ 2 µg/mL)
MIC [6]: 0.201 µM (≈ 0.5 µg/mL)
MIC [7]: 0.802 µM (≈ 2 µg/mL)
MIC (Klebsiella pneumoniae): 0.567 µM (≈ 1.41 µg/mL)
MIC [8]: 0.802 µM (≈ 2 µg/mL)
MIC (Micrococcus sp. S1.634): 0.401 µM (≈ 1 µg/mL)
MIC [9]: 1.6 µM (≈ 4 µg/mL)
MIC (Pseudomonas aeruginosa): 0.641 µM and 1.13 µM
MIC [10]: 0.802 µM (≈ 2 µg/mL)
MIC [11]: 0.201 µM (≈ 0.5 µg/mL)
MIC (Staphylococcus aureus): 0.401 µM (≈ 1 µg/mL)
MIC [12]: 0.802 µM (≈ 2 µg/mL)

CC(C)C[C@H](NC(=O)[C@H](CCCN=C(N)N)NC(=O)[C@@H]1CCCN1C(=O)[C@H](Cc1cnc[nH]1)NC(=O)[C@@H]1CCCN1C(=O)[C@@H]1CCCN1C(=O)[C@H](CCCN=C(N)N)NC(=O)[C@@H]1CCCN1C(=O)[C@H](CCC(N)=O)NC(=O)[C@@H]1CCCN1C(=O)[C@H](CCCN=C(N)N)NC(=O)[C@H](Cc1ccc(O)cc1)NC(=O)[C@@H](NC(=O)[C@@H]1CCCN1C(=O)[C@H](CCCCN)NC(=O)[C@H](CC(N)=O)NC(=O)[C@H](CC(N)=O)NC(=O)CN)C(C)C)C(=O)O [GNNKPVYRPQPRPPHPRL]
MIC (Escherichia coli J2210): 0.034 µM (≈ 0.0722 µg/mL)
MIC (Escherichia coli JJ2489): 0.034 µM (≈ 0.0722 µg/mL)
MIC (Escherichia coli JW0013): 0.012 µM (≈ 0.0255 µg/mL)
MIC [13]: 0.096 µM (≈ 0.204 µg/mL)
MIC [14]: 0.024 µM (≈ 0.051 µg/mL)
MIC (Escherichia coli MC1041): 0.024 µM (≈ 0.051 µg/mL)
MIC (Escherichia coli): 0.048 µM (≈ 0.102 µg/mL)
MIC [15]: 0.024 µM (≈ 0.051 µg/mL)
MIC [16]: 0.031 µM (≈ 0.0658 µg/mL)
MIC [17]: 0.024 µM (≈ 0.051 µg/mL)
MIC [18]: 0.017 µM (≈ 0.0361 µg/mL)
MIC [19]: 0.034 µM (≈ 0.0722 µg/mL)

CC[C@H](C)[C@H](NC(=O)[C@H](CCCCN)NC(=O)[C@H](CCCCN)NC(=O)[C@@H](NC(=O)[C@H](C)NC(=O)[C@H](CCCCN)NC(=O)[C@@H](NC(=O)[C@@H](NC(=O)[C@H](CC(C)C)NC(=O)[C@H](CCCCN)NC(=O)[C@H](C)NC(=O)[C@H](Cc1c[nH]c2ccccc12)NC(=O)CN)[C@@H](C)CC)[C@@H](C)O)[C@@H](C)CC)C(N)=O [GWAKLITKAIKKI]
MIC [20]: 10.9 µM (≈ 16 µg/mL)
MIC [21]: 2.72 µM (≈ 4 µg/mL)
MIC [22]: 21.8 µM (≈ 32 µg/mL)
MIC [23]: 10.9 µM (≈ 16 µg/mL)
MIC [24]: 10.9 µM (≈ 16 µg/mL)
MIC [25]: 21.8 µM (≈ 32 µg/mL)
MIC [26]: 2.72 µM (≈ 4 µg/mL)
MIC [27]: 12 µM and 24.1 µM
MIC [28]: 5.44 µM (≈ 7.99 µg/mL)
MIC (Escherichia coli BW25113): 2.72 µM (≈ 4 µg/mL)
MIC (Escherichia coli JW55034): 2.72 µM (≈ 4 µg/mL)
MIC [29]: 10.9 µM (≈ 16 µg/mL)
MIC [30]: 21.8 µM (≈ 32 µg/mL)
MIC [31]: 10.9 µM (≈ 16 µg/mL)
MIC [32]: 21.8 µM (≈ 32 µg/mL)
MIC [33]: 5.44 µM (≈ 7.99 µg/mL)
MIC [34]: 21.8 µM (≈ 32 µg/mL)
MIC [35]: 10.9 µM (≈ 16 µg/mL)
